Tested on: 817829-284-R-J1-PDC complex spheroid viability
Experiment: Anticancer human tumor 817829-284-R-J1-PDC patient-derived colon adenocarcinoma cell line growth inhibition [POLQ]
Conditions: for IC50: curve of first compound; for viability, T/C: stronger effect = lower value; active = viability on the fitted dose curve at most 10% of control; inactive = the rest
Procedure, shortened: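 Three-cell-type spheroids modelling solid tumor plus stroma served as the readout system; POL inhibitors were tested individually and in combination, concentration ranges set by clinical Cmax where known.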
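Also: spheroids exposed to compounds for 7 days.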
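For viability, T/C in this document: 100% = DMSO vehicle-treated spheroids.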

COc1ccc([C@@H](O)c2cc(-c3ncnc4cc(N5CCOCC5)ccc34)c(F)cc2Cl)nn1 + COC1C(OC(N)=O)C(O)C(Oc2ccc3c(O)c(NC(=O)c4ccc(O)c(CC=C(C)C)c4)c(=O)oc3c2C)OC1(C)C
1040 nM: IC50 (second compound 0.1 µM)
579 nM: IC50 (second compound 10 µM)
1010 nM: IC50 (second compound 1 µM)
797 nM: IC50 (second compound 0.316 µM)
678 nM: IC50 (second compound 0.0316 µM)
inactive: viability, T/C (second compound 0.0316 µM, first compound 0.0316 µM) 111% | viability, T/C (second compound 0.0316 µM, first compound 0.1 µM) 61.9% | viability, T/C (second compound 0.0316 µM, first compound 0.316 µM) 76.9% | viability, T/C (second compound 0.0316 µM, first compound 1 µM) 44.5% | viability, T/C (second compound 0.0316 µM, first compound 3.16 µM) 22.8% | viability, T/C (second compound 0.0316 µM, first compound 10 µM) 11.9% | viability, T/C (second compound 0.1 µM, first compound 0.0316 µM) 117% | viability, T/C (second compound 0.1 µM, first compound 0.1 µM) 79.6% | viability, T/C (second compound 0.1 µM, first compound 0.316 µM) 68.8% | viability, T/C (second compound 0.1 µM, first compound 1 µM) 55% | viability, T/C (second compound 0.1 µM, first compound 3.16 µM) 26.6% | viability, T/C (second compound 0.1 µM, first compound 10 µM) 18.5% | viability, T/C (second compound 0.316 µM, first compound 0.0316 µM) 98.7% | viability, T/C (second compound 0.316 µM, first compound 0.1 µM) 86% | viability, T/C (second compound 0.316 µM, first compound 0.316 µM) 58.4% | viability, T/C (second compound 0.316 µM, first compound 1 µM) 53.9% | viability, T/C (second compound 0.316 µM, first compound 3.16 µM) 25.5% | viability, T/C (second compound 0.316 µM, first compound 10 µM) 18.9% | viability, T/C (second compound 1 µM, first compound 0.0316 µM) 102% | viability, T/C (second compound 1 µM, first compound 0.1 µM) 88.8% | viability, T/C (second compound 1 µM, first compound 0.316 µM) 89.4% | viability, T/C (second compound 1 µM, first compound 1 µM) 49.2% | viability, T/C (second compound 1 µM, first compound 3.16 µM) 25.9% | viability, T/C (second compound 1 µM, first compound 10 µM) 18.9% | viability, T/C (second compound 3.16 µM, first compound 0.0316 µM) 97.1% | viability, T/C (second compound 3.16 µM, first compound 0.1 µM) 86% | viability, T/C (second compound 3.16 µM, first compound 0.316 µM) 59.6% | viability, T/C (second compound 3.16 µM, first compound 1 µM) 34.2% | viability, T/C (second compound 3.16 µM, first compound 3.16 µM) 22.3% | viability, T/C (second compound 3.16 µM, first compound 10 µM) 16% | viability, T/C (second compound 10 µM, first compound 0.0316 µM) 135% | viability, T/C (second compound 10 µM, first compound 0.1 µM) 62.2% | viability, T/C (second compound 10 µM, first compound 0.316 µM) 80% | viability, T/C (second compound 10 µM, first compound 1 µM) 43.9% | viability, T/C (second compound 10 µM, first compound 3.16 µM) 27.4% | viability, T/C (second compound 10 µM, first compound 10 µM) 16.2%
497 nM: IC50 (second compound 3.16 µM)

From PubChem BioAssay AID1963839 (Molecular Pharmacology Branch, DTP, NCI, 2024)
